Measured values taken from patent publication US20110207820A1, “NOVEL CHRYSOCHROMULINA SPECIES, METHODS AND MEDIA THEREFOR, AND PRODUCTS DERIVED THEREFROM” (UNIVERSITY OF WASHINGTON, priority 2008, published 2011).
Like-named read-outs stand apart in the source and are kept apart here.

Key:
Alga X [1] = test system: Alga X
Procedure: The mother culture is generally about one week old and has a culture density of about 2×10̂6.
Two experiments were run using 0, 8, 16, 32, and 64 mM NaCl salt concentrations in the Alga X culture medium. Alga cells were collected for lipid analysis at 0, 3, 6, and 9 days for each salt concentration.
The starting culture densities were 5.00E+03 cells/ml.
The starting culture densities were 1.00E+05 cells/ml.
Alga X cell cultures were subjected to agitation between 0 and 100 rpm.
A volume of about 37.6 ml of original stock was added to each starting flask, with the balance being medium to bring the cell cultures to a concentration of about 1.00E+06.
The original stock culture was maintained in CORE1 (distilled water based medium), plus SEM, with a concentration of about 3.19E+06 cells/ml. Volumes of 34.5 ml of original stock were added to each starting flask, with the balance being medium to bring the cell cultures to a concentration of about 1.00E+05.
The experimental AMPSO culture was maintained in a medium of Clear (human waste water), SEM, and 8 mM AMPSO pH buffer. The AMPSO plus NaHCO3 culture was maintained in a medium of Clear (human waste water), SEM, 8 mM AMPSO pH buffer, and 2 mM NaHCO3.

[2] = test system: lipid bodies in algal cells; experiment: BODIPY 505/515 vital staining of lipid bodies in live algal cells (fluorescence microscopy, cell sorter); assay type: cell-based, Alga X
From the text: When added to a culture of algal cells, 1-10 micro-liters of BODIPY 505/515 stains intracellular lipid bodies within minutes. (Preparation of a BODIPY 505/515 stock solution is described below in EXAMPLE 30.) BODIPY 505/515 accumulates in lipidic compartments by a diffusion-trap mechanism. The dye has a high oil/water partition coefficient, which allows it to cross cell membranes and organelle membranes easily. When viewed under a fluorescent microscope, the background fluorescence of BODIPY 505/515 in the bath solution is slightly visible. Despite the slight background fluorescence, lipid bodies within live algal cells are intensely labeled and can be easily seen using fluorescein-type optics or confocal microscopy (see FIG. 8). […] This fluorescence arises from endogenous carotenoid and chlorophyll molecules located within the chloroplasts.
Fluorescently labeled cells with large lipid bodies can be isolated using the fluorescent cell sorter and used to successfully seed new algal cultures. Fluorescently labeled cells have a signal/noise ratio of 50-200 above background fluorescence, depending on the BODIPY 505/515 dye concentration used. […] BODIPY 505/515 can be used to characterize the diurnal rhythm of lipid body size within algal cells or decline in lipid quantity per cell as a culture moves from one life history phase to another. […]

[3] = test system: Single-cell and filamentous species of algae; experiment: Algal growth in the continuous presence of the dye; assay type: cell-based; conditions: micromolar concentrations, for days (data not shown)
Alga X [4] = experiment: Fatty acid content and fatty acid profile of Alga X cells grown in test media (GC/MS, FAME ionization detection); assay type: cell-based, Chrysochromulina sp.

O=C([O-])O.[Na+] [sodium bicarbonate]
cell culture growth (Alga X [1]; 2 mM, 4 mM or 6 mM, with AMPSO pH buffer): further enhances cell culture growth

CC1=CC(C)=[N+]2C1=Cc1c(C)cc(C)n1[B-]2(F)F [BODIPY 505/515, 4,4-difluoro-1,3,5,7-tetramethyl-4-bora-3a,4a-diaza-s-indacene]
time after dye addition until fluorescently-labeled lipid bodies are visible ([2]; 1 micro-molar BODIPY 505/515, 0.05% DMSO): ≤ 5 min | signal/noise ratio of labeled cells above background fluorescence ([2]; depending on dye concentration): 50-200 | growth of algae in continuous presence of the dye [3]: continue to grow well

O=P([O-])(O)O.[K+] [KH2PO4]
fatty acid productivity (Alga X [4]; increasing KH2PO4, by day 6): increases slightly

CC(=O)O [acetate]
cells/mL (Alga X [1]; acetate 100 uM, day 0): 1.0E+05 cells/mL | cells/mL (Alga X [1]; acetate 100 uM, day 3): 1.54E+06 cells/mL | cells/mL (Alga X [1]; acetate 100 uM, day 6): 3.27E+06 cells/mL | cells/mL (Alga X [1]; acetate 100 uM, day 9): 4.87E+06 cells/mL | cells/mL (Alga X [1]; acetate 200 uM, day 0): 1.0E+05 cells/mL | cells/mL (Alga X [1]; acetate 200 uM, day 3): 1.69E+06 cells/mL | cells/mL (Alga X [1]; acetate 200 uM, day 6): 4.02E+06 cells/mL | cells/mL (Alga X [1]; acetate 200 uM, day 9): 5.02E+06 cells/mL | cells/mL (Alga X [1]; acetate 400 uM, day 0): 1.0E+05 cells/mL | cells/mL (Alga X [1]; acetate 400 uM, day 3): 1.67E+06 cells/mL | cells/mL (Alga X [1]; acetate 400 uM, day 6): 4.44E+06 cells/mL | cells/mL (Alga X [1]; acetate 400 uM, day 9): 4.70E+06 cells/mL

nitrogen
lipid per cell (Alga X [4]; increased nitrogen in the media): little affected

[Cl-].[Na+] [NaCl]
level of NaCl at which Alga X exhibits maximum growth (Alga X [1]): 8.0 mM | survival of Alga X cells (Alga X [1]): did not survive | cell growth (Alga X [1]; 32 mM salt content): depressed

O=P(O)(O)OC(CO)CO [BGlycerolphosphate, beta-glycerophosphate]
cells/mL (Alga X [1]; B-glycerolphosphate 6.45 uM (control amount), day 2): 6.98E+05 cells/mL | cells/mL (Alga X [1]; B-glycerolphosphate 6.45 uM (control amount), day 3): 1.57E+06 cells/mL | cells/mL (Alga X [1]; B-glycerolphosphate 6.45 uM (control amount), day 4): 2.75E+06 cells/mL | cells/mL (Alga X [1]; B-glycerolphosphate 6.45 uM (control amount), day 6): 3.54E+06 cells/mL | cells/mL (Alga X [1]; B-glycerolphosphate 6.45 uM (control amount), day 8): 4.10E+06 cells/mL | cells/mL (Alga X [1]; B-glycerolphosphate 6.45 uM (control amount), day 9): 4.53E+06 cells/mL
